# Measured values as given in patent publication US9487510B2, “Substituted heterocyclic acetamides as kappa opioid receptor (KOR) agonists” (Dr. Reddy's Laboratories Ltd., priority 2012, dated 2016).
# pEC50: −log10 of the molar value.
# Target: human KOR receptor (Homo sapiens, UniProt P41145)
# Test: IP-One HTRF assay, potency of KOR agonists, dose-response in transiently transfected COS-7 cells
# Type: cell-based
# Sequence of human KOR receptor (P41145 whole entry): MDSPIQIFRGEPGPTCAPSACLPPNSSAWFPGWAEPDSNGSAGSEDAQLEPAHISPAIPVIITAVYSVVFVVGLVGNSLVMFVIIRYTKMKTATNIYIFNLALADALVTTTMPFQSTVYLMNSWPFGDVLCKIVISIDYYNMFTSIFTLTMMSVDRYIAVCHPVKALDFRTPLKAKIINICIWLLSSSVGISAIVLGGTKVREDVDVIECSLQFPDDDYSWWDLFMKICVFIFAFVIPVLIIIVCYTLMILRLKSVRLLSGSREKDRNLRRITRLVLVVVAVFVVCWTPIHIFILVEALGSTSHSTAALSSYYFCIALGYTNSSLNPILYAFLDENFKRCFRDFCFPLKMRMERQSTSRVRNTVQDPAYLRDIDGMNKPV
row,Compound,pEC50
1,"COc1cccc([C@@H](CN2CC[C@H](O)C2)N(C)C(=O)Cc2ccc3c(c2)NC(=O)CS3)c1 [Example 131, N-((S)-2-((S)-3-hydroxypyrrolidin-1-yl)-1-(3-methoxyphenyl)ethyl)-N-methyl-2-(3-oxo-3,4-dihydro-2H-benzo[b][1,4]thiazin-6-yl)acetamide]",≥ 7.30
2,"CN(C)C(=O)c1cccc([C@@H](CN2CC[C@H](O)C2)N(C)C(=O)Cc2ccc3sc(=O)[nH]c3c2)c1 [Example 40, 3-((S)-2-((S)-3-hydroxypyrrolidin-1-yl)-1-(N-methyl-2-(2-oxo-2,3-dihydrobenzo[d]thiazol-5-yl)acetamido)ethyl)-N,N-dimethylbenzamide-2,2,2-trifluoroacetate]",≥ 7.30
3,"CN(C(=O)Cc1ccc2sc(=O)[nH]c2c1)[C@H](CN1CC[C@H](O)C1)c1cccc(C(=O)O)c1 [Example 18, 3-((S)-2-((S)-3-hydroxypyrrolidin-1-yl)-1-(N-methyl-2-(2-oxo-2,3-dihydrobenzo[d]thiazol-5-yl)acetamido)ethyl)benzoic acid]",≥ 7.30
4,"CN(C(=O)Cc1ccc2c(c1)NC(=O)CS2(=O)=O)[C@H](CN1CC[C@H](O)C1)c1cccc(OCC(=O)O)c1 [Example 22, 2-(3-((S)-1-(2-(1,1-dioxido-3-oxo-3,4-dihydro-2H-benzo[b][1,4]thiazin-6-yl)-N-methylacetamido)-2-((S)-3-hydroxypyrrolidin-1-yl)ethyl)phenoxy)acetic acid]",≥ 7.30
5,"CN(C(=O)Cc1ccc2c(c1)NC(=O)C2)[C@H](CN1CC[C@H](O)C1)c1cccc(-c2nnco2)c1 [Example 223, N-((S)-1-(3-(1,3,4-oxadiazol-2-yl)phenyl)-2-((S)-3-hydroxypyrrolidin-1-yl)ethyl)-N-methyl-2-(2-oxoindolin-6-yl)acetamide]",≥ 7.30
6,"CN(C(=O)Cc1ccc2c(c1)NC(=O)CS2)[C@H](CN1CCCC1)c1ccccc1 [Example 129, (S)-N-methyl-2-(3-oxo-3,4-dihydro-2H-benzo [b][1,4]thiazin-6-yl)-N-(1-phenyl-2-(pyrrolidin-1-yl)ethyl)acetamide]",≥ 7.30
7,"CCN(CC)C(=O)c1cccc([C@@H](CN2CC[C@H](O)C2)N(C)C(=O)Cc2ccc3ncc(=O)[nH]c3c2)c1 [Example 209, N,N-diethyl-3-((S)-2-((S)-3-hydroxypyrrolidin-1-yl)-1-(N-methyl-2-(3-oxo-3,4-dihydroquinoxalin-6-yl)acetamido)ethyl)benzamide 2,2,2-trifluoroacetate]",≥ 7.30
8,"CN(C(=O)Cc1ccc2c(c1)NC(=O)C2)[C@H](CN1CC[C@H](O)C1)c1cccc(-c2nccn2C)c1 [Example 213, N-((S)-2-((S)-3-hydroxypyrrolidin-1-yl)-1-(3-(1-methyl-1H-imidazol-2-yl)phenyl)ethyl)-N-methyl-2-(2-oxoindolin-6-yl)acetamide]",≥ 7.30
9,"CCC#Cc1cccc([C@@H](CN2CC[C@H](O)C2)N(C)C(=O)Cc2ccc3sc(=O)[nH]c3c2)c1 [Example 205, N-((S)-1-(3-(but-1-yn-1-yl)phenyl)-2-((S)-3-hydroxypyrrolidin-1-yl)ethyl)-N-methyl-2-(2-oxo-2,3-dihydrobenzo[d]thiazol-5-yl)acetamide]",≥ 7.30
10,"CN(C(=O)Cc1ccc2c(c1)NC(=O)C2)[C@H](CN1CC[C@H](O)C1)c1cccc(C(=O)O)c1 [Example 23, 3-((S)-2-((S)-3-hydroxypyrrolidin-1-yl)-1-(N-methyl-2-(2-oxoindolin-6-yl)acetamido)ethyl) benzoic acid]",≥ 7.30
11,"Cc1csc(-c2cccc([C@@H](CN3CC[C@H](O)C3)N(C)C(=O)Cc3ccc4c(c3)NC(=O)C4)c2)n1 [Example 218, N-((S)-2-((S)-3-hydroxypyrrolidin-1-yl)-1-(3-(4-methylthiazol-2-yl)phenyl)ethyl)-N-methyl-2-(2-oxoindolin-6-yl)acetamide]",≥ 7.30
12,"CN(C(=O)Cc1ccc2sc(=O)[nH]c2c1)[C@H](CN1CC[C@H](O)C1)c1cccc(C(N)=O)c1 [Example 19, 3-((S)-2-((S)-3-hydroxypyrrolidin-1-yl)-1-(N-methyl-2-(2-oxo-2,3-dihydrobenzo [d]thiazol-5-yl)acetamido)ethyl)benzamide]",≥ 7.30
13,"CN(C(=O)Cc1ccc2c(c1)NC(=O)CS2)[C@H](CN1CC[C@H](O)C1)c1cccc(OCC(=O)O)c1 [Example 172, 2-(3-((S)-2-((S)-3-hydroxypyrrolidin-1-yl)-1-(N-methyl-2-(3-oxo-3,4-dihydro-2H-benzo[b][1,4]thiazin-6-yl)acetamido)ethyl)phenoxy)acetic acid]",≥ 7.30
14,"CN(C(=O)Cc1ccc2c(c1)NC(=O)C2)[C@H](CN1CC[C@H](O)C1)c1cccc(-c2cn(C)cn2)c1 [Example 225, N-((S)-2-((S)-3-hydroxypyrrolidin-1-yl)-1-(3-(1-methyl-1H-imidazol-4-yl)phenyl)ethyl)-N-methyl-2-(2-oxoindolin-6-yl)acetamide]",≥ 7.30
15,"CN(C(=O)Cc1ccc2c(c1)NC(=O)CS2)[C@H](CN1CC[C@H](O)C1)c1cccc(C(N)=O)c1 [Example 32, 3-((S)-2-((S)-3-hydroxypyrrolidin-1-yl)-1-(N-methyl-2-(3-oxo-3,4-dihydro-2H-benzo[b][1,4]thiazin-6-yl)acetamido)ethyl)benzamide]",≥ 7.30
16,"CN(C(=O)Cc1ccc2c(c1)NC(=O)C2)[C@H](CN1CC[C@H](O)C1)c1cccc(C#N)c1 [Example 156, N-((S)-1-(3-cyanophenyl)-2-((S)-3-hydroxypyrrolidin-1-yl)ethyl)-N-methyl-2-(2-oxoindolin-6-yl)acetamide]",≥ 7.30
17,"Cc1nnc(-c2cccc([C@@H](CN3CC[C@H](O)C3)N(C)C(=O)Cc3ccc4c(c3)NC(=O)C4)c2)o1 [Example 224, N-((S)-2-((S)-3-hydroxypyrrolidin-1-yl)-1-(3-(5-methyl-1,3,4-oxadiazol-2-yl)phenyl)ethyl)-N-methyl-2-(2-oxoindolin-6-yl)acetamide]",≥ 7.30
18,"O=C(Cc1ccc2sc(=O)[nH]c2c1)N[C@H](CN1CCCC1)c1ccccc1 [Example 4, (S)-2-(2-oxo-2,3-dihydrobenzo[d]thiazol-5-yl)-N-(1-phenyl-2-(pyrrolidin-1-yl)ethyl)acetamide]",7.00 to 7.29
19,"CN(C(=O)Cc1ccc2c(c1)NC(=O)C2)[C@H](CN1CC[C@H](O)C1)c1cccc(-c2nccs2)c1 [Example 36, N-((S)-2-((S)-3-hydroxypyrrolidin-1-yl)-1-(3-(thiazol-2-yl)phenyl)ethyl)-N-methyl-2-(2-oxoindolin-6-yl)acetamide]",7.00 to 7.29
20,"Cc1cc(C)cc([C@@H](CN2CCC(O)C2)N(C)C(=O)Cc2ccc3c(c2)NC(=O)CS3(=O)=O)c1 (stereo in doubt) [Example 147, N-((S)-1-(3,5-dimethylphenyl)-2-((S)-3-hydroxypyrrolidin-1-yl)ethyl)-2-(1,1-dioxido-3-oxo-3,4-dihydro-2H-benzo[b][1,4]thiazin-6-yl)-N-methylacetamide]",≥ 7.30
21,"CN(C(=O)Cc1ccc2c(c1)N(C)S(=O)(=O)C2)[C@H](CN1CC[C@H](O)C1)c1cccc(-c2nn[nH]n2)c1 [Example 21, N-((S)-1-(3-(1H-tetrazol-5-yl)phenyl)-2-((S)-3-hydroxypyrrolidin-1-yl)ethyl)-N-methyl-2-(1-methyl-2,2-dioxido-1,3-dihydrobenzo[c]isothiazol-6-yl)acetamide]",7.00 to 7.29
22,"CN(C(=O)Cc1ccc2sc(=O)[nH]c2c1)[C@H](CN1CC[C@H](O)C1)c1cccc(-c2nccs2)c1 [Example 192, N-((S)-2-((S)-3-hydroxypyrrolidin-1-yl)-1-(3-(thiazol-2-yl)phenyl)ethyl)-N-methyl-2-(2-oxo-2,3-dihydrobenzo[d]thiazol-5-yl)acetamide]",6.00 to 7.00
23,"CN(C(=O)Cc1ccc2ncc(=O)[nH]c2c1)[C@H](CN1CC[C@H](O)C1)c1cccc(-c2ncon2)c1 [Example 190, N-((S)-1-(3-(1,2,4-oxadiazol-3-yl)phenyl)-2-((S)-3-hydroxypyrrolidin-1-yl)ethyl)-N-methyl-2-(3-oxo-3,4-dihydroquinoxalin-6-yl)acetamide 2,2,2-trifluoroacetate]",≥ 7.30
24,"CCCN(C(=O)Cc1ccc2c(c1)NC(=O)CS2(=O)=O)[C@H](CN1CC[C@H](O)C1)c1cccc(OC(F)(F)F)c1 [Example 137, 2-(1,1-dioxido-3-oxo-3,4-dihydro-2H-benzo[b][1,4]thiazin-6-yl)-N-((S)-2-((S)-3-hydroxypyrrolidin-1-yl)-1-(3-(trifluoromethoxy)phenyl)ethyl)-N-propylacetamide]",≥ 7.30
25,"CN(C(=O)Cc1ccc2c(c1)NC(=O)CO2)[C@H](CN1CC[C@H](O)C1)c1cccc(C#N)c1 [Example 153, N-((S)-1-(3-cyanophenyl)-2-((S)-3-hydroxypyrrolidin-1-yl)ethyl)-N-methyl-2-(3-oxo-3,4-dihydro-2H-benzo[b][1,4]oxazin-6-yl)acetamide]",≥ 7.30
26,"CN(C(=O)Cc1ccc2c(c1)NC(=O)C2)[C@H](CN1CC[C@H](O)C1)c1cccc(C(=O)NS(C)(=O)=O)c1 [Example 177, 3-((S)-2-((S)-3-hydroxypyrrolidin-1-yl)-1-(N-methyl-2-(2-oxoindolin-6-yl)acetamido)ethyl)-N-(methylsulfonyl)benzamide]",≥ 7.30
27,"CN(C(=O)Cc1ccc2c(c1)NS(=O)(=O)C2)[C@H](CN1CC[C@H](O)C1)c1cccc(C(F)(F)F)c1 [Example 9, 2-(2,2-dioxido-1,3-dihydrobenzo[c]isothiazol-6-yl)-N-((S)-2-((S)-3-hydroxypyrrolidin-1-yl)-1-(3-(trifluoromethyl)phenyl)ethyl)-N-methylacetamide]",6.00 to 7.00
28,"CN(C(=O)Cc1ccc2c(c1)NC(=O)C2(F)F)[C@H](CN1CC[C@H](O)C1)c1ccccc1 [Example 12, 2-(3,3-difluoro-2-oxoindolin-6-yl)-N-((S)-2-((S)-3-hydroxypyrrolidin-1-yl)-1-phenylethyl)-N-methylacetamide]",≥ 7.30
29,"Cc1nc(-c2cccc([C@@H](CN3CC[C@H](O)C3)N(C)C(=O)Cc3ccc4c(c3)NC(=O)C4)c2)no1 [Example 35, N-((S)-2-((S)-3-hydroxypyrrolidin-1-yl)-1-(3-(5-methyl-1,2,4-oxadiazol-3-yl)phenyl)ethyl)-N-methyl-2-(2-oxoindolin-6-yl)acetamide]",≥ 7.30
